In general, IC50 refers to the point on the concentration scale where inhibition reaches its midpoint.

From patent publication US11976083B2, “Inhibitors of peptidylarginine deiminases” (Gilead Sciences, Inc., priority 2020, dated 2024) come the findings set out here.

T1 sequence (Q9UM07 2-663): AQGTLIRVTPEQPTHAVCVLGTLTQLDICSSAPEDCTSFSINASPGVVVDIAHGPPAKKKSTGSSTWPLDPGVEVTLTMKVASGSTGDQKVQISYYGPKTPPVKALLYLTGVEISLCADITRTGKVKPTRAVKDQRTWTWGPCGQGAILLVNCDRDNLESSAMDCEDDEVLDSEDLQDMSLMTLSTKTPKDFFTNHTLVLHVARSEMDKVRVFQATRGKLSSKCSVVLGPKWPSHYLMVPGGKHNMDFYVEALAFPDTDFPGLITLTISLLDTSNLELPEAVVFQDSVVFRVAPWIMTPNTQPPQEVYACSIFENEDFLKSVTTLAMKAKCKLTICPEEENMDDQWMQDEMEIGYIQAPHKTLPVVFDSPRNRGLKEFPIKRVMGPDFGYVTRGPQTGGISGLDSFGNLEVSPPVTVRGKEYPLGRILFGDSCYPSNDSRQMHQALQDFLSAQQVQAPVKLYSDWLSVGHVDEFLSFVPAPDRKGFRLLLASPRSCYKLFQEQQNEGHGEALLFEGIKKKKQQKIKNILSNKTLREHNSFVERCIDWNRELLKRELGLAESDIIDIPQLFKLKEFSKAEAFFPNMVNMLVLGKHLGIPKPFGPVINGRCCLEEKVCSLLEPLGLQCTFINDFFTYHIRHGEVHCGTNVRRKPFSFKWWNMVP

This assay addresses T1, human PAD4 (Homo sapiens, UniProt Q9UM07).
T1 construct: human PAD4 (NM_012387), A2-P663, was PCR amplified; His-SUMO (N, cleaved yes); made in house; host or cells: E. coli BL21(DE3)
The experiment in a line: In vitro PAD4 BAEE biochemical assay. Conditions: BAEE substrate 3 mM, 5 nM PAD4, 2 mM calcium chloride; geometric mean of multiple experiments. In outline:
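Assay was run at 25 °C using 3 mM BAEE and 5 nM human PAD4 after a 30 min compound preincubation; ammonia produced over 2 h was quantified by OPA-derived fluorescence. Full inhibition was defined by 50 µM BB-Cl-Amidine, and IC50 came from variable-slope nonlinear regression.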
Consider `C[C@H]1NC(=O)[C@@H]2C[C@H]2CCCCCn2c(-c3nc4cc(C(=O)N[C@H]5CNCC[C@@H]5F)c(F)cc4n3C)cc3ccc1nc32` [Example 242, 6-fluoro-~{N}-[(3~{S},4~{S})-4-fluoro-3-piperidyl]-1-methyl-2-[(2~{R},5~{R},7~{R})-2-methyl-4-oxo-3,13,19-triazatetracyclo[11.5.2.0^{5,7}.0^{16,20}]icosa-1(19),14,16(20),17-tetraen-14-yl]benzimidazole-5-carboxamide], for which the IC50 is 31 nM. Turning to `C[C@H]1NC(=O)c2nccnc2CCCCCn2c(-c3nc4cc(C(=O)N[C@H]5CNCC[C@@H]5F)c(F)cc4n3C3CC3)cc3ccc1nc32` [Example 243, 1-cyclopropyl-6-fluoro-~{N}-[(3~{S},4~{S})-4-fluoro-3-piperidyl]-2-[(2~{R})-2-methyl-4-oxo-3,6,9,16,22-pentazatetracyclo[14.5.2.0^{5,10}.0^{19, 23}]tricosa-1(21),5(10),6,8,17,19,22-heptaen-17-yl]benzimidazole-5-carboxamide], the IC50 was 68 nM. As for `COc1cc(C(=O)N[C@H]2CNCC[C@@H]2O)cc2nc(-c3cc4ccc5nc4n3CCCCCCC(C)(C)C(=O)N[C@@H]5C)n(C)c12` [Example 244, ~{N}-[(3~{S},4~{S})-4-hydroxy-3-piperidyl]-7-methoxy-1-methyl-2-[(11~{R})-8,8,11-trimethyl-9-oxo-1,10,19-triazatricyclo[10.5.2.0^{15,18}]nonadeca-12(19),13,15(18),16-tetraen-17-yl]benzimidazole-5-carboxamide], the IC50 came to 2580 nM. Take `COc1cc(C(=O)N2[C@H]3CC[C@@H]2[C@H](N)C3)cc2nc(-c3cc4ccc5nc4n3CCCCCOCC(=O)N[C@@H]5C)c(C)n12` [Example 247, (11~{R})-17-[7-[(1~{R},2~{R},4~{S})-2-amino-7-azabicyclo[2.2.1]heptane-7-carbonyl]-5-methoxy-3-methyl-imidazo[1,2-a]pyridin-2-yl]-11-methyl-7-oxa-1,10,19-triazatricyclo[10.5.2.0^{15,18}]nonadeca-12(19),13,15(18),16-tetraen-9-one]: the IC50 came out at 18 nM. Take `COc1cc(C(=O)N2[C@H]3CC[C@@H]2[C@H](N)C3)cc2nc(-c3cc4ccc5nc4n3CCCCCCOCC(=O)N[C@@H]5C)c(C)n12` [Example 248, (12~{R})-18-[7-[(1~{R},2~{R},4~{S})-2-amino-7-azabicyclo[2.2.1]heptane-7-carbonyl]-5-methoxy-3-methyl-imidazo[1,2-a]pyridin-2-yl]-12-methyl-8-oxa-1,11,20-triazatricyclo[11.5.2.0^{16,19}]icosa-13(20),14,16(19),17-tetraen-10-one]: the IC50 is 44 nM. As to `C[C@H]1NC(=O)CCCCCCCn2c(-c3nc4cc(C(=O)N5[C@H]6CC[C@@H]5[C@H](N)C6)ccn4c3C3CC3)cc3ccc1nc32` [Example 249, (11~{R})-17-[7-[(1~{R},2~{R},4~{S})-2-amino-7-azabicyclo[2.2.1]heptane-7-carbonyl]-3-cyclopropyl-imidazo[1,2-a]pyridin-2-yl]-11-methyl-1,10,19-triazatricyclo[10.5.2.0^{15,18}]nonadeca-12(19),13,15(18),16-tetraen-9-one], the IC50 is 51 nM. With `COc1cc(C(=O)N2[C@H]3CC[C@@H]2[C@H](N)C3)cc2nc(-c3cc4ccc5nc4n3CCCCCCCC(=O)N[C@@H]5C)n(C3CC3)c12` [Example 250, (11~{R})-17-[5-[(1~{R},2~{R},4~{S})-2-amino-7-azabicyclo[2.2.1]heptane-7-carbonyl]-1-cyclopropyl-7-methoxy-benzimidazol-2-yl]-11-methyl-1,10,19-triazatricyclo[10.5.2.0^{15,18}]nonadeca-12(19),13,15(18),16-tetraen-9-one], the IC50 worked out at 44 nM. On to `COc1cc(C(=O)N2[C@H]3CC[C@@H]2[C@H](N)C3)cc2nc(-c3cc4ccc5nc4n3CCCCCCCC(=O)NC5(C)C)n(C)c12` [Example 251, 17-[5-[(1~{R},2~{R},4~{S})-2-amino-7-azabicyclo[2.2.1]heptane-7-carbonyl]-7-methoxy-1-methyl-benzimidazol-2-yl]-11,11-dimethyl-1,10,19-triazatricyclo[10.5.2.0^{15,18}]nonadeca-12(19),13,15(18),16-tetraen-9-one], for which the IC50 amounted to 74 nM. `CCc1c(-c2cc3ccc4nc3n2CCCCCCCC(=O)N[C@@H]4C)nn2cc(C(=O)N3[C@H]4CC[C@@H]3[C@H](N)C4)ccc12` [Example 252, 17-[5-[(1˜{R},2˜{R},4˜{S})-2-amino-7-azabicyclo[2.2.1]heptane-7-carbonyl]-3-ethylpyrazolo[1,5-a]pyridin-2-yl]-11-methyl-1,10,19-triazatricyclo[10.5.2.0^{15,18}]nonadeca-12(19),13,15(18),16-tetraen-9-one]: the IC50 came to 45 nM. For the compound `COc1cc(C(=O)N2[C@H]3CC[C@@H]2[C@H](N)C3)cc2nc(-c3cc4ccc5nc4n3CCCCCCC(C)(C)C(=O)N[C@@H]5C)n(C3CC3)c12` [Example 253, (11~{R})-17-[5-[(1~{R},2~{R},4~{S})-2-amino-7-azabicyclo[2.2.1]heptane-7-carbonyl]-1-cyclopropyl-7-methoxy-benzimidazol-2-yl]-8,8,11-trimethyl-1,10,19-triazatricyclo[10.5.2.0^{15,18}]nonadeca-12(19),13,15(18),16-tetraen-9-one], the IC50 was determined as 103 nM. With `COc1cc(C(=O)N2[C@H]3CC[C@@H]2[C@H](N)C3)cc2nc(-c3cc4ccc5nc4n3CCCCCCC(=O)N[C@@H]5C)n(C3CC3)c12` [Example 254, (10~{R})-16-[5-[(1~{R},2~{R},4~{S})-2-amino-7-azabicyclo[2.2.1]heptane-7-carbonyl]-1-cyclopropyl-7-methoxy-benzimidazol-2-yl]-10-methyl-1,9,18-triazatricyclo[9.5.2.0^{14,17}]octadeca-11(18),12,14(17),15-tetraen-8-one], the IC50 worked out at 32 nM. Consider `COc1cc(C(=O)N2[C@H]3CC[C@@H]2[C@H](N)C3)cc2nc(-c3cc4ccc5nc4n3CCCCCCCC(=O)NC5)n(C)c12` [Example 255, 17-[5-[(1~{R},2~{R},4~{S})-2-amino-7-azabicyclo[2.2.1]heptane-7-carbonyl]-7-methoxy-1-methyl-benzimidazol-2-yl]-1,10,19-triazatricyclo[10.5.2.0^{15,18}]nonadeca-12(19),13,15(18),16-tetraen-9-one], for which the IC50 is 59 nM. On to `COc1cc(C(=O)N2[C@H]3CC[C@@H]2[C@H](N)C3)cc2nc(-c3cc4ccc5nc4n3CCCCCCCC(=O)N(C)C5)n(C)c12` [Example 256, 17-[5-[(1~{R},2~{R},4~{S})-2-amino-7-azabicyclo[2.2.1]heptane-7-carbonyl]-7-methoxy-1-methyl-benzimidazol-2-yl]-10-methyl-1,10,19-triazatricyclo[10.5.2.0^{15,18}]nonadeca-12(19),13,15(18),16-tetraen-9-one], for which the IC50 came to 48 nM.

As for `COc1cc(C(=O)N2[C@H]3CC[C@@H]2[C@H](N)C3)cc2nc(-c3cc4ccc5nc4n3CCCCCCCC(=O)N[C@H]5C(F)(F)F)n(C)c12` [Example 257, (11~{R})-17-[5-[(1~{R},2~{R},4~{S})-2-amino-7-azabicyclo[2.2.1]heptane-7-carbonyl]-7-methoxy-1-methyl-benzimidazol-2-yl]-11-(trifluoromethyl)-1,10,19-triazatricyclo[10.5.2.0^{15,18}]nonadeca-12(19),13,15(18),16-tetraen-9-one], the IC50 is 2470 nM.

Take `COc1cc(C(=O)N2[C@H]3CC[C@@H]2[C@H](N)C3)cc2nc(-c3cc4ccc5nc4n3CCCCCCCC(=O)N[C@@H]5C(F)(F)F)n(C)c12` [Example 258, (11~{S})-17-[5-[(1~{R},2~{R},4~{S})-2-amino-7-azabicyclo[2.2.1]heptane-7-carbonyl]-7-methoxy-1-methyl-benzimidazol-2-yl]-11-(trifluoromethyl)-1,10,19-triazatricyclo[10.5.2.0^{15,18}]nonadeca-12(19),13,15(18),16-tetraen-9-one]: the IC50 was determined as 39 nM. Then `COc1cc(C(=O)N2[C@H]3CC[C@@H]2[C@H](N)C3)cc2nc(-c3cc4ccc5nc4n3CCCCCCCC(=O)NC5C3CC3)n(C)c12` (stereo partly drawn) [Example 259, 17-[5-[(1˜{R},2˜{R},4˜{S})-2-amino-7-azabicyclo[2.2.1]heptane-7-carbonyl]-7-methoxy-1-methyl-benzimidazol-2-yl]-11-cyclopropyl-1,10,19-triazatricyclo[10.5.2.0^{15,18}]nonadeca-12(19),13,15(18),16-tetraen-9-one], with 37 nM.

Consider `COc1cc(C(=O)N2CC[C@H]3CCCN[C@H]3C2)cc2nc(-c3cc4ccc5nc4n3CCCCCCC3(CC3)C(=O)N[C@@H]5C)n(C)c12` [Example 260, (11~{R})-17-[5-[(4~{a}~{R},8~{a}~{R})-2,3,4,4~{a},5,6,8,8~{a}-octahydro-1~{H}-1,7-naphthyridine-7-carbonyl]-7-methoxy-1-methyl-benzimidazol-2-yl]-11-methyl-spiro[1,10,19-triazatricyclo[10.5.2.0^{15,18}]nonadeca-12(19),13,15(18),16-tetraene-8,1′-cyclopropane]-9-one], for which the IC50 is 453 nM. As for `COc1cc(C(=O)N2CCC[C@@H](N)C2)cc2nc(-c3cc4ccc5nc4n3CCCCCCC3(CCC3)C(=O)N[C@@H]5C)n(C)c12` [Example 263, (11~{R})-17-[5-[(3~{R})-3-aminopiperidine-1-carbonyl]-7-methoxy-1-methyl-benzimidazol-2-yl]-11-methyl-spiro[1,10,19-triazatricyclo[10.5.2.0^{15,18}]nonadeca-12(19),13,15(18),16-tetraene-8,1′-cyclobutane]-9-one], the IC50 turned out to be 69 nM.
